Reference: US8318812B2, “Therapeutic agents for the treatment of lymphoid malignancies” (The Ohio State University Research Foundation, priority 2006, dated 2012)

Columns and labels:
[1] = system: CD19+ B cells from CLL patients; assay type: cell-based; conditions: CLL cells
Procedure: Cells: Blood was obtained from patients with B-cell CLL with informed consent under a protocol approved by the hospital internal review board. All patients examined in this series had immunophenotypically defined CLL as outlined by the modified 96 National Cancer Institute criteria. B-CLL cells were isolated from freshly donated blood using ficoll density gradient centrifugation (Ficoll-Paque Plus, Amershan Biosciences, Piscataway, N.J.). Isolated mononuclear cells were incubated in RPMI 1640 media (Gibco/Invitrogen, Carlsbad, Calif.) supplemented with 10% heat-inactivated fetal bovine serum (FBS, Hyclone Laboratories, Logan, Utah), 2 mM L-glutamine (Invitrogen, Carlsbad, Calif.), and penicillin (100 U/mL)/streptomycin (100 μg/ml) [Sigma-Aldrich, St. Louis] at 37° C. in an atmosphere of 5% CO2. Freshly isolated B-CLL cells were used in all experiments described herein. Enriched B-lymphocyte fractions were prepared by using MACS negative selection kit by Miltenyi Biotech (Auburn, Calif.) or by “Rosette-Sep” kit from Stem Cell Technologies (Vancouver, British Columbia, Canada) according to the manufacturer's instructions. Human B-lymphocyte cell lines Raji and Ramos were obtained from ATCC (Manassas, Va.) and the MEC cells were obtained from German cell line bank (Braunschweig, Germany). The 697-neo and 697-Bcl-2 cell lines were kind gift from Dr. John Reed (Burnham Institute, La Jolla, Calif.). Cells were cultured at 37° C. in an atmosphere of 5% CO2 in RPMI 1640 media (Gibco/Invitrogen, Carlsbad, Calif.) supplemented with 10% fetal bovine serum (Gibco/Invitrogen).
(§1) Analysis of cell viability and apoptosis: The cell viability was carried out by dual staining with Annexin V conjugated to flourescein-isothyocyanate (FITC) and Propidium iodide (PI) as described previously. Briefly, 1×10^6 cells were stained with Annexin V-FITC (BD Pharmingen) and Propidium iodide (BD Pharmingen) for 15 minutes in dark and analyzed by flow cytometry using a Beckman-Coulter EPICS XL cytometer (Beckman-Coulter, Miami, Fla.). Apoptotic cells were identified as Annexin V and/or PI positive cells. Cells excluding both FITC and PI were considered to be viable. The Annexin V^−/PI^− cells are represented as % live cells normalized to untreated controls.
B-CLL cells are reported to be resistant to apoptosis in-vivo. To systematically analyze the effects of FTY720 on B-CLL cells, purified CD19^+ cells from B-CLL patients were incubated with increasing concentrations of FTY720 ranging from 0, 0.5, 1, 1.5, 2.5, 5 or 10 uM. The cytotoxic effects were independently determined by flow cytometry using propidium iodide (PI) and Annexin V conjugated FITC reagents. Populations excluding both PI and Annexin V-FITC staining were considered viable. […]

Mino cells = assay: Annexin V/PI toxicity in Mino cells; assay type: cell-based, Human; conditions: 150 μM z-VAD-fmk
Procedure: Primary MCL cells were isolated from PBMC (with informed patient consent under a protocol approved by IRB) as described before. All the MCL patients were identified as outlined by the World Health Organization (WHO) classification. Human mantle cell lymphoma patient cell lines (Mino and Jeko) were obtained from Dr. Raymond Lai. Primary cells or MCL cell lines were incubated in RPMI 1640 media, supplemented with 10%-20% heat-inactivated fetal bovine serum, 2 mM L-glutamine and penicillin (100 U/mL)/streptomycin ([…]) at 37° C. in an atmosphere of 5% CO2. FTY720 was synthesized as previously described. Toxicity was determined by flow cytometry using Annexin-V-FITC and Propidium Iodide (PI) staining. Apoptotic cells were identified as Annexin-V+ and/or PI+ cells. Cells excluding both FITC and PI were considered viable. Western Blotting was performed as described previously using indicated antibodies. The PARP (Ab-2) and Caspase 9 antibodies were purchased from Oncogene/Calbiochem/EMD Biosciences (San Diego, Calif.). Cyclin D1, Akt, Actin, Mcl-1, p-ERK, ERK and Bcl-2 were obtained from Santa Cruz biotech (Santa Cruz, Calif.).
Several therapeutic agents, including fludarabine, chlorambucil, 2-chloro-2-deoxyadenosine and glucocorticoids, induce toxicity in B cell malignancies through activating caspases, the cysteine proteases of CED3/ICE family. Inhibition of these caspases results in abrogation of apoptosis mediated by the toxic stimuli. To determine if caspase activation is involved in FTY720-induced cytotoxicity in MCL, we pretreated Mino cells with 150 μM broad spectrum caspase inhibitor z-VAD-fmk. […] Activation of caspases results in cleavage of key cellular proteins including poly-ADP-ribose polymerase (PARP).

PP2A [2] = assay: PP2A activity in lysates of Ramos B cell line; assay type: cell-based, Human
Procedure: (§2) PP2A Activity: The protein phosphatase activity of total cellular lysate was determined by measuring the generation of free PO4 from the threonine phosphopeptide using the malachite green-phosphate complex assay as described by the manufacturer (Upstate, Charlottesville, […].). Cell lysates were prepared in a low detergent lysis buffer (1% Nonidet P-40, 10 mM HEPES, 0.5M NaCl, 10% Glycerol, 1 mM PMSF, 5 mM Benzamidine, 10 μg/ml leupeptin). The phosphatase assay was performed in a PP2A-specific reaction buffer (Upstate) using 750 μM phosphopeptide substrate. After 30-min incubation at 30° C. malachite dye was added, and free phosphate was measured by optical density at 650 nm. To avoid variability among different immunoprecipitated samples, the phosphatase activities were normalized with the amount of PP2A immunoprecipitated, as detected and quantified by western blot analysis of each treatment group.
In order to determine if FTY720 induced activation of PP2A enzyme in CD19^+ B cells from CLL patients were treated with 10 uM FTY720 for 0, 1, 2, 3, 4 and 15 hrs and the PP2A activity in the lysates were quantified using a functional assay following immunoprecipitation of PP2A enzyme. As reported previously in other systems, FTY720 induced a consistent 2-3 fold increase in PP2A activation with the peak response observed at 4 hour post treatment (FIG. 6a). […]

[3] = system: MEC, Ramos, Raji, 697 and RS4-11 B cell lines; assay: Annexin V/PI viability by flow cytometry in B cell lines; assay type: cell-based, Human; conditions: Ramos cells; okadaic acid pretreatment
Procedure: Cells: Blood was obtained from patients with B-cell CLL with informed consent under a protocol approved by the hospital internal review board. All patients examined in this series had immunophenotypically defined CLL as outlined by the modified 96 National Cancer Institute criteria. B-CLL cells were isolated from freshly donated blood using ficoll density gradient centrifugation (Ficoll-Paque Plus, Amershan Biosciences, Piscataway, N.J.). Isolated mononuclear cells were incubated in RPMI 1640 media (Gibco/Invitrogen, Carlsbad, Calif.) supplemented with 10% heat-inactivated fetal bovine serum (FBS, Hyclone Laboratories, Logan, Utah), 2 mM L-glutamine (Invitrogen, Carlsbad, Calif.), and penicillin (100 U/mL)/streptomycin (100 μg/ml) [Sigma-Aldrich, St. Louis] at 37° C. in an atmosphere of 5% CO2. Freshly isolated B-CLL cells were used in all experiments described herein. […]
as §1, with “Apoptotic cells were identified as Annexin V and/or PI positive cells. Cells excluding both FITC and PI were considered to be viable. The Annexin V^−/PI^− cells are represented as % live cells normalized to untreated controls.” left out

PP2A [4] = assay: PP2A activity (malachite green phosphatase assay) in lysates of CLL cells; assay type: cell-based, Human; conditions: pretreatment with 5 nM okadaic acid
Procedure: as §2
In order to determine if FTY720 induced activation of PP2A enzyme in CD19^+ B cells from CLL patients were treated with 10 uM FTY720 for 0, 1, 2, 3, 4 and 15 hrs and the PP2A activity in the lysates were quantified using a functional assay following immunoprecipitation of PP2A enzyme. As reported previously in other systems, FTY720 induced a consistent 2-3 fold increase in PP2A activation with the peak response observed at 4 hour post treatment (FIG. 6a). […] Similar phenomenon was also observed in Ramos B cell line. FTY720 induced activation of PP2A in Ramos cell line as early as 3 hours and this induced PP2A activity was inhibited by okadaic acid (FIG. 7a-b).

Compound	effect of z-VAD-fmk on FTY720 induced apoptosis ([1]; z-VAD-fmk 150 uM)	effect of z-VAD-fmk on fludarabine induced apoptosis ([1]; z-VAD-fmk 150 uM)	reduction in FTY720 induced apoptosis (Mino cells) [%]	reduction in fludarabine induced apoptosis (Mino cells) [%]	effect of okadaic acid on FTY720 induced PP2A activity (PP2A [2])	effect of okadaic acid on FTY720 induced apoptosis [3]	inhibition of the FTY720 induced PP2A activation (PP2A [4]) [fold]	effect of okadaic acid on FTY720 induced cellular cytotoxicity ([1]; okadaic acid pretreatment)
z-VAD-fmk	failed to prevent FTY720 induced apoptosis	effectively rescued fludarabine induced apoptosis	~50	~50				
C=C1[C@@H](O)[C@@H]2O[C@]3(CC[C@H](/C=C/[C@@H](C)[C@@H]4CC(C)=C[C@@]5(O[C@H](C[C@@](C)(O)C(=O)O)CC[C@H]5O)O4)O3)CC[C@H]2O[C@@H]1[C@@H](O)C[C@H](C)[C@H]1O[C@@]2(CCCCO2)CC[C@H]1C [okadaic acid]					inhibited	inhibition of FTY720 induced apoptosis	≤ 3	inhibition of FTY720 induced cellular cytotoxicity
